# Test results as given in patent US7592373B2 (Boehringer Ingelheim International GmbH, priority 2003, dated 2009).
row,melting point,SMILES
1,57 to 60 °C,"CCN(CC)CCOc1ccc(NC(=O)C#Cc2ccc(C(F)(F)F)cc2Cl)cc1NS(C)(=O)=O [Example 4.23, 3-(2-chloro-4-trifluoromethylphenyl)propynoic acid-[4-(3-diethylaminoethoxy)-3-methanesulfonylaminophenyl]amide]"
2,85 to 88 °C,"CCN(CC)CCOc1ccc(NC(=O)C#Cc2ccc(C(F)(F)F)cc2Cl)cc1F [Example 4.25, 3-(2-chloro-4-trifluoromethylphenyl)propynoic acid-[4-(3-diethylaminoethoxy)-3-fluorophenyl]amide]"
3,207 to 209 °C,"COc1cc(NC(=O)C#Cc2ccc(C(F)(F)F)cc2Cl)ccc1OCCN1CCC(C)CC1 [Example 4.270, 3-(2-chloro-4-trifluoromethylphenyl)propynoic acid-{3-methoxy-4-[2-(4-methylpiperidin-1-yl)ethoxy]phenyl}amide]"
4,196 to 201 °C,"COc1cc(NC(=O)C#Cc2ccc(C(F)(F)F)cc2Cl)ccc1OCCN1CC(C)CC(C)C1 (stereo not shown) [Example 4.271, 3-(2-chloro-4-trifluoromethylphenyl)propynoic acid-{4-[2-(3,5-dimethylpiperidin-1-yl)ethoxy]-3-methoxyphenyl}amide]"
5,209 to 211 °C,"COc1cc(NC(=O)C#Cc2ccc(C(F)(F)F)cc2Cl)ccc1OCCN1CCOCC1 [Example 4.273, 3-(2-chloro-4-trifluoromethylphenyl)propynoic acid-[3-methoxy-4-(2-morpholin-4-ylethoxy)phenyl]amide]"
6,195 to 197 °C,"COc1cc(NC(=O)C#Cc2ccc(C(F)(F)F)cc2Cl)ccc1OCCN1CCC(OC)CC1 [Example 4.274, 3-(2-chloro-4-trifluoromethylphenyl)propynoic acid-{3-methoxy-4-[2-(4-methoxypiperidin-1-yl)ethoxy]phenyl}amide]"
7,150 °C,"COc1cc(NC(=O)C#Cc2ccc(C(F)(F)F)cc2Cl)ccc1OCCN1CCC(C(N)=O)CC1 [Example 4.276, 1-(2-{4-[3-(2-chloro-4-trifluoromethylphenyl)propynoylamino]-2-methoxyphenoxy}ethyl)piperidine-4-carboxylic acid amide]"
8,225 to 227 °C,"COc1cc(NC(=O)C#Cc2ccc(C(F)(F)F)cc2Cl)ccc1OCCN1C(C)CCCC1C (stereo not shown) [Example 4.277, 3-(2-chloro-4-trifluoromethylphenyl)propynoic acid-{4-[2-(2,6-dimethylpiperidin-1-yl)ethoxy]-3-methoxyphenyl}amide]"
9,118 to 120 °C,"CCN(CC)CCOc1ccc(NC(=O)C#Cc2cccnc2)cc1Cl [Example 4.285, 3-pyridin-3-ylpropynoic acid-[3-chloro-4-(2-diethylaminoethoxy)phenyl]amide]"
10,207 to 208 °C,"CC1CCN(Cc2ccc(/C=C/C(=O)Nc3ccc(-c4ccc(Cl)cc4)cc3)cc2)CC1 [Example 5.2, (E)-N-(4′-chlorobiphenyl-4-yl)-3-[4-(4-methylpiperidin-1-ylmethyl)phenyl]acrylamide]"
11,217 to 218 °C,"C[C@@H]1C[C@H](C)CN(Cc2ccc(/C=C/C(=O)Nc3ccc(-c4ccc(Cl)cc4)cc3)cc2)C1 [Example 5.3, (E)-N-(4′-chlorobiphenyl-4-yl)-3-[4-(cis-3,5-dimethylpiperidin-1-ylmethyl)phenyl]acrylamide]"
12,205 to 206 °C,"COC1CCN(Cc2ccc(/C=C/C(=O)Nc3ccc(-c4ccc(Cl)cc4)cc3)cc2)CC1 [Example 5.4, (E)-N-(4′-chlorobiphenyl-4-yl)-3-[4-(4-methoxypiperidin-1-ylmethyl)phenyl]acrylamide]"
13,254 to 255 °C,"NC(=O)C1CCN(Cc2ccc(/C=C/C(=O)Nc3ccc(-c4ccc(Cl)cc4)cc3)cc2)CC1 [Example 5.6, 1-{4-[(E)-2-(4′-chlorobiphenyl-4-ylcarbamoyl)vinyl]benzyl}piperidine-4-carboxylic acid amide]"
